Several values for one entry are separate records, joined by “and”; a condition that tells them apart may be missing. Equal values may be shown once.
Tests used:
[1] = system: ZEAMA Sileno; assay: Tank-mix post-emergence crop damage, greenhouse, visual assessment; assay type: in vivo, maize; set-up: key to Reduction [Difference]: % points: herbicide damage without safener − damage with safener; conditions: for HER effect + SAF / Reduction [%] / Reduction [Difference]: Final; for HER effect: no safener, Final assessment
Experimental: Seeds of crops (spring wheat, TRZAS; spring barley, HORVS; maize, ZEAMA) were placed in sandy loam soil in peat pots, covered with soil and cultivated in a greenhouse under good growth conditions. Two to three weeks after sowing, the test plants were treated at the 1 to 3-leaf stage. The herbicide/safener active compound combinations according to the invention, formulated as wettable powders or emulsion concentrates, and, in parallel tests, the correspondingly formulated individual active compounds were sprayed onto the green parts of the plants in various dosages using an amount of water of 300 l/ha (converted).
The pots were returned under good growing conditions in a glasshouse and a visual assessment of herbicidal effects was made at intervals from 1 to 3 weeks after herbicide application (DAT=days after treatment). Assessment was on a percentage basis in comparison with untreated control plants (0%=no injury, 100%=complete kill).
Reduction[Difference]=herbicide damage without safener−herbicide damage with safener Reduction[%]=(Reduction[Difference]*100)/herbicide damage without safener
a) Plant Species, Variety: ZEAMA Sileno, Safener (SAF): Isoxadifen-Ethyl

[2] = system: ZEAMA Sileno; assay: Safener seed treatment, pre-emergence herbicide, crop damage; assay type: in vivo, maize; set-up: key to Reduction [Difference]: % crop damage without safener minus % damage with safener; conditions: for Reduction [%] / Reduction [Difference]: isoxadifen-ethyl 0.25 g a.i./kg seed; for HER effect + SAF: isoxadifen-ethyl seed treatment 0.25 g a.i./kg seed; for HER effect: no safener
Experimental: For the safener seed treatment, sufficient seeds of the respective crops (spring wheat, TRZAS; spring barley, HORVS; maize, ZEAMA) were weighed into screw top glass bottles approximately twice the volume of the seeds.
The specified safeners, formulated as wettable powder (WP) were weighed out so that the specified rates (g a.i./kg seed) would be obtained, dissolved in water (1 ml water per 10 g of seeds), and added to the seeds to produce a slurry.
The bottles were capped and then placed in an overhead shaker (set at medium speed for ca. 60 minutes) so that the seeds were evenly coated with the slurry. The bottles were uncapped and the seeds were either placed on paper and dried for an interval of 3-4 hours prior to sowing, or directly sown. Seeds were placed in sandy loam soil in pots of a diameter of 7-8 cm, and covered with soil.
Pre-emergence application of the specified herbicides was done subsequently, on two sets of plants: a) seed treatment with safener, as described above
The herbicides were formulated as WP and was sprayed onto the soil surface as an aqueous suspension at an equivalent water application rate of 300 l/ha.
After application, the test plants were kept in the greenhouse under good growth conditions. At intervals up to 4 weeks after application (=28 days after treatment; DAT), % crop damage observed on the treated plants was scored visually in comparison to control plants that had not received any safener or herbicide treatment.
Values in the table below are mean values of at least 2 replicates.
Reduction[Difference]=herbicide damage without safener−herbicide damage with safener Reduction[%]=(Reduction[Difference]*100)/herbicide damage without safener […]
c) Plant Species, Variety: ZEAMA Sileno, Safener (SAF): Isoxadifen-Ethyl

[3] = HER 8 g a.i./ha + isoxadifen-ethyl 50 g a.i./ha
[4] = HER 8 g a.i./ha, isoxadifen-ethyl 50 g a.i./ha
[5] = HER 32 g a.i./ha + isoxadifen-ethyl 100 g a.i./ha
[6] = HER 32 g a.i./ha, isoxadifen-ethyl 100 g a.i./ha
[7] = HER 40 g a.i./ha pre-emergence, 14 DAT
[8] = HER 40 g a.i./ha pre-emergence, 26 DAT
[9] = HER 80 g a.i./ha pre-emergence, 14 DAT
[10] = HER 2 g a.i./ha + isoxadifen-ethyl 50 g a.i./ha
[11] = HER 2 g a.i./ha, isoxadifen-ethyl 50 g a.i./ha
[12] = HER 2 g a.i./ha, 0%=no injury, 100%=complete kill
[13] = HER 80 g a.i./ha pre-emergence, 26 DAT

Structure (SMILES) | HER effect + SAF [1, 3] | Reduction [%] [1, 4] | Reduction [Difference] [1, 4] | HER effect ([1]; HER 8 g a.i./ha) | HER effect + SAF [1, 5] | Reduction [%] [1, 6] | Reduction [Difference] [1, 6] | HER effect ([1]; HER 32 g a.i./ha) | further results
C=CCOC(=O)C1CC(NC(=O)C2(C)CC(c3cc(F)cc(F)c3)=NO2)CO1 (mixture of isomers) [Example 1.75] | 23% | 68% | 50 | 73% | 43% | 51% | 45 | 88% | 
CC1(C(=O)NC2C=CC(C(=O)OCCSCc3ccccc3)C2)CC(c2cc(F)cc(F)c2)=NO1 (stereo not drawn) [Example 1.27] |  |  |  |  | 30% | 50% | 30 | 60% | 
C=CC1(C(=O)NC2COC(C(=O)OC)C2)CC(c2cc(F)cc(F)c2)=NO1 (stereo not drawn) [Example 1.69] | 33% | 64% | 59 | 92% | 30% | 68% | 63 | 93% | Reduction [%] [2, 7]: 42%; Reduction [Difference] [2, 7]: 40; Reduction [%] [2, 8]: 28%; Reduction [Difference] [2, 8]: 25; HER effect + SAF [2, 7]: 55%; HER effect + SAF [2, 8]: 65%; HER effect [2, 7]: 95%; HER effect [2, 8]: 90%
CN(C)C(=O)SCCOC(=O)C1C=CC(NC(=O)C2(C)CC(c3cc(F)cc(F)c3)=NO2)C1 (stereo not drawn) [Example 1.29] | 25% | 58% | 35 | 60% | 25% | 67% | 50 | 75% | Reduction [%] [2, 9]: 33%; Reduction [Difference] [2, 9]: 20; HER effect + SAF [2, 9]: 40%; HER effect [2, 9]: 60%
CCOC(=O)C1C=CC(NC(=O)C2(CF)CC(c3cc(F)cc(F)c3)=NO2)C1 (stereo not drawn) [Example 1.17] | 20% | 79% | 75 | 95% |  |  |  |  | HER effect + SAF [1, 10]: 10%; Reduction [%] [1, 11]: 78%; Reduction [Difference] [1, 11]: 35; HER effect [1, 12]: 45%
COC(=O)C1C=CC(NC(=O)C2(C)CC(c3cc(F)cc(F)c3)=NO2)C1 (stereo not drawn) [Example 1.19] | 20% | 50% | 20 | 40% |  |  |  |  | 
C=CC1(C(=O)NC2COC(C(=O)OC)C2)CC(c2cc(F)cc(F)c2)=NO1 (stereo not drawn) [Example 1.70] |  |  |  |  |  |  |  |  | Reduction [%] [2, 7]: 44%; Reduction [Difference] [2, 7]: 35; Reduction [%] [2, 8]: 53%; Reduction [Difference] [2, 8]: 45; HER effect + SAF [2, 7]: 45%; HER effect + SAF [2, 8]: 40%; HER effect [2, 7]: 80%; HER effect [2, 8]: 85%; Reduction [%] [2, 9]: 26%; Reduction [Difference] [2, 9]: 25; Reduction [%] [2, 13]: 21%; Reduction [Difference] [2, 13]: 20; HER effect + SAF [2, 9]: 70%; HER effect + SAF [2, 13]: 75%; HER effect [2, 9]: 95%; HER effect [2, 13]: 95%; HER effect + SAF [1, 10]: 35%; Reduction [%] [1, 11]: 60%; Reduction [Difference] [1, 11]: 53; HER effect [1, 12]: 88%
C=CC1(C(=O)NC2COC(C(=O)OCCOC)C2)CC(c2cc(F)cc(F)c2)=NO1 (mixture of isomers) [Example 1.66] | 43% | 55% | 53 | 96% | 47% | 52% | 50 | 97% | 
CCOC(=O)C1=CCC(NC(=O)C2(C)CC(c3cccc(F)c3)=NO2)C1 (stereo not drawn) [Example 1.59] |  |  |  |  | 10% | 85% | 57 | 67% | 
C=CCOC(=O)C1CC(NC(=O)C2(C=C)CC(c3cc(F)cc(F)c3)=NO2)CO1 (mixture of isomers) [Example 1.83] | 28% | 55% | 34 | 62% | 20% | 76% | 65 | 85% | 
C=CC1(C(=O)NC2COC(C(=O)OCCCl)C2)CC(c2cc(F)cc(F)c2)=NO1 (mixture of isomers) [Example 1.82] | 65% and 53% | 28% and 43% | 25 and 40 | 90% and 93% | 75% and 55% | 22% and 40% | 21 and 37 | 96% and 92% | 
COC(=O)C1C=CC(NC(=O)C2(C)CC(c3cc(Cl)cc(C#N)c3)=NO2)C1 (mixture of isomers) [Example 1.23] | 30% | 40% | 20 | 50% | 30% | 57% | 40 | 70% | 
